Experimental data taken from patent publication US6465457B1 (priority 1991, dated 2002).
Where two headings read alike, the source gives them in different places.

Columns and labels:
Format in all cases: in vivo
[1] = tested on: Phytophthora infestans (Tomatoes); conditions: one or two days before inoculation
[2] = tested on: Pyricularia oryzae (Rice); conditions: one or two days before inoculation
[3] = tested on: Erysiphe graminis tritici (Wheat); test: Foliar fungal disease test on plants: Erysiphe graminis tritici (Wheat); conditions: plants inoculated 24 hours before treatment
Protocol: (§1) The compounds were tested against a variety of foliar fungal diseases of plants. The technique employed was as follows.
(§2) The plants were grown in John Innes Potting Compost (No 1 or 2) in 4 cm diameter minipots. The test compounds were formulated either by bead milling with aqueous DISPERSOL T or as a solution in acetone or acetone/ethanol which was diluted to the required concentration immediately before use. […] The sprays were applied to maximum retention and the root drenches to a final concentration equivalent to approximately 40 ppm a.i. in dry soil. TWEEN 20 was added to give a final concentration of 0.05% when the sprays were applied to cereals.
(§3) For most of the tests the compounds were applied to the soil (roots) or to the foliage (by spraying) one or two days before the plant was inoculated with the disease. An exception was the test on Erysiphe graminis in which the plants were inoculated 24 hours before treatment. Foliar pathogens were applied by spray as zoosporangial suspensions onto the leaves of test plants. After inoculation, the plants were put into an appropriate environment to allow infection to proceed and then incubated until the disease was ready for assessment. The period between inoculation and assessment varied from four to fourteen days according to the disease and environment.
(§4) The disease level present (i.e. leaf area covered by actively sporulating disease) on each of the treated plants was recorded using the following assessment scale:
(§5) Each assessment was then expressed as a percentage of the level of disease present on the untreated control plants. This calculated value is referred to as a POCO (Percentage of Control) value. An example of a typical calculation is as follows:
(§6) Disease level on untreated control=90
(§7) Disese level on treated plant=30 [formula]
(§8) This calculated POCO value is then rounded to the nearest of the values in the 9-point assessment scale shown above. In this particular example, the POCO value would be rounded to 30. If the calculated POCO falls exactly mid-way between two of the points, it is rounded to the lower of the two values.

[4] = tested on: Puccinia recondita (Wheat); test: Foliar fungal disease test on plants: Puccinia recondita (Wheat)
Protocol: as §1
The plants were grown in John Innes Potting Compost (No 1 or 2) in 4 cm diameter minipots. The test compounds were formulated either by bead milling with aqueous DISPERSOL T or as a solution in acetone or acetone/ethanol which was diluted to the required concentration immediately before use. The formulations (100 ppm active ingredient) were sprayed on to the foliage or applied to the roots of the plants in the soil. The sprays were applied to maximum retention and the root drenches to a final concentration equivalent to approximately 40 ppm a.i. in dry soil. TWEEN 20 was added to give a final concentration of 0.05% when the sprays were applied to cereals.
as §3, with “For most of the tests the compounds were applied to the soil (roots) or to the foliage (by spraying) one or two days before the plant was inoculated with the disease.” left out
as §4, §5, §6, §7, §8

[5] = tested on: Plasmopara viticola (Vines); test: Foliar fungal disease test on plants: Plasmopara viticola (Vines); conditions: one or two days before inoculation
Protocol: as §1, §2, §3, §4, §5, §6, §7, §8

Septoria nodorum (Wheat) = test: Foliar fungal disease test on plants: Septoria nodorum (Wheat); conditions: one or two days before inoculation
Protocol: as §1, §2, §3, §4, §5, §6, §7, §8

[6] = tested on: Venturia inaequalis (Apples); test: Foliar fungal disease test on plants: Venturia inaequalis (Apples); conditions: one or two days before inoculation
Protocol: as §1, §2, §3, §4, §5, §6, §7, §8

[7] = tested on: Thanatephorus cucumeries (Rice); test: Foliar fungal disease test on plants: Thanatephorus cucumeries (Rice); conditions: one or two days before inoculation
Protocol: as §1, §2, §3, §4, §5, §6, §7, §8

[8] = 100 ppm a.i. foliar spray or root drench (approx. 40 ppm in dry soil)
[9] = 100 ppm a.i. foliar spray or root drench (approx. 40 ppm in dry soil), one or two days before inoculation
[10] = 100 ppm a.i. foliar spray or root drench, plants inoculated with Puccinia recondita 48 hours before treatment

| Structure (SMILES) | POCO (Percentage of Control) disease level, Phytophthora infestans (Tomatoes) [1, 8] | POCO (Percentage of Control) disease level, Pyricularia oryzae (Rice) [2, 8] | POCO (Percentage of Control) disease level, Erysiphe graminis tritici (Wheat) [3, 8] | POCO (Percentage of Control) disease level, Puccinia recondita (Wheat) [4, 9] | POCO (Percentage of Control) disease level, Plasmopara viticola (Vines) [5, 8] | POCO (Percentage of Control) disease level, Septoria nodorum (Wheat) (Septoria nodorum (Wheat); [8]) | POCO (Percentage of Control) disease level, Venturia inaequalis (Apples) [6, 8] | POCO (Percentage of Control) disease level, Phytophthora infestans (Tomatoes) ([1]; 10 ppm foliar spray only) | POCO (Percentage of Control) disease level, Pyricularia oryzae (Rice) ([2]; 10 ppm foliar spray only) | POCO (Percentage of Control) disease level, Erysiphe graminis tritici (Wheat) ([3]; 10 ppm foliar spray only) | POCO (Percentage of Control) disease level, Puccinia recondita (Wheat) ([4]; 10 ppm foliar spray only, plants inoculated with Puccinia recondita 48 hours before treatment) | POCO (Percentage of Control) disease level, Thanatephorus cucumeries (Rice) ([7]; 10 ppm foliar spray only) | POCO (Percentage of Control) disease level, Plasmopara viticola (Vines) ([5]; 10 ppm foliar spray only) | POCO (Percentage of Control) disease level, Septoria nodorum (Wheat) (Septoria nodorum (Wheat); 10 ppm foliar spray only) | POCO (Percentage of Control) disease level, Venturia inaequalis (Apples) ([6]; 10 ppm foliar spray only) | POCO (Percentage of Control) disease level, Thanatephorus cucumeries (Rice) [7, 8] | POCO (Percentage of Control) disease level, Puccinia recondita (Wheat) [4, 10] |
| --- | --- | --- | --- | --- | --- | --- | --- | --- | --- | --- | --- | --- | --- | --- | --- | --- | --- |
| CO/C=C(/Oc1ccccc1OC(=O)NC(=O)c1ccccc1)C(=O)OC [1 (17), (E)-methyl 2-[2-((benzoyl)carbamoyloxy)phenoxy]-3-methoxypropenoate] | 24 (20 and 24 = 10.1-20% disease present) | 94 (90 and 94 = 60.1-100% disease present) | 94 (90 and 94 = 60.1-100% disease present) | 24 (20 and 24 = 10.1-20% disease present) | 24 (20 and 24 = 10.1-20% disease present) | 94 (90 and 94 = 60.1-100% disease present) | 0 (0 = 0% disease present) | – | – | – | – | – | – | – | – | – | – |
| COC=C(C(=O)OC)c1ccccc1COC(=O)n1ccc2ccccc21 [1 (133)] | – | – | – | – | – | – | – | 90 (90 and 94 = 60.1-100% disease present) | 90 (90 and 94 = 60.1-100% disease present) | 90 (90 and 94 = 60.1-100% disease present) | 90+ (90 and 94 = 60.1-100% disease present) | 60 (60 = 30.1-60% disease present) | 0 (0 = 0% disease present) | 90 (90 and 94 = 60.1-100% disease present) | 30 (30 = 20.1-30% disease present) | – | – |
| CO/C=C(/C(=O)OC)c1ccccc1COC(=O)Nc1cccc(C(F)(F)F)c1 [2 (1), (E)-methyl 3-methoxy-2-[2-((3-trifluoromethylphenyl)carbamoyloxymethyl)phenyl]-propenoate] | 10 (10 = 5.1-10% disease present) | 5 (5 = 3.1-5% disease present) | 60 (60 = 30.1-60% disease present) | 10 (10 = 5.1-10% disease present) | 10 (10 = 5.1-10% disease present) | 20 (20 and 24 = 10.1-20% disease present) | 0 (0 = 0% disease present) | – | – | – | – | – | – | – | – | 60 (60 = 30.1-60% disease present) | – |
| COC=C(C(=O)OC)c1ccccc1COC(=O)N(C)c1cccc(C(F)(F)F)c1 [2 (2)] | 90 (90 and 94 = 60.1-100% disease present) | 5 (5 = 3.1-5% disease present) | 0 (0 = 0% disease present) | 0 (0 = 0% disease present) | 0 (0 = 0% disease present) | 0 (0 = 0% disease present) | 0 (0 = 0% disease present) | – | – | – | – | – | – | – | – | 30 (30 = 20.1-30% disease present) | – |
| COC=C(C(=O)OC)c1ccccc1COC(=S)Nc1cccc(C(F)(F)F)c1 [2 (6)] | 60 (60 = 30.1-60% disease present) | 5 (5 = 3.1-5% disease present) | 60 (60 = 30.1-60% disease present) | 30 (30 = 20.1-30% disease present) | 30 (30 = 20.1-30% disease present) | 60 (60 = 30.1-60% disease present) | 3 (3 = 1.1-3% disease present) | – | – | – | – | – | – | – | – | 90 (90 and 94 = 60.1-100% disease present) | – |
| COC=C(C(=O)OC)c1ccccc1COC(=O)N1CCCCC1 [2 (133)] | 90 (90 and 94 = 60.1-100% disease present) | 20 (20 and 24 = 10.1-20% disease present) | 60 (60 = 30.1-60% disease present) | – | 5 (5 = 3.1-5% disease present) | 90 (90 and 94 = 60.1-100% disease present) | 5 (5 = 3.1-5% disease present) | – | – | – | – | – | – | – | – | 90 (90 and 94 = 60.1-100% disease present) | 90+ (90 and 94 = 60.1-100% disease present) |
| COC=C(C(=O)OC)c1ccccc1COC(=O)Nc1ccccc1F [3 (1)] | 30 (30 = 20.1-30% disease present) | 90 (90 and 94 = 60.1-100% disease present) | 0 (0 = 0% disease present) | 0 (0 = 0% disease present) | 0 (0 = 0% disease present) | 0 (0 = 0% disease present) | 1 (1 = 0.1-1% disease present) | – | – | – | – | – | – | – | – | 90 (90 and 94 = 60.1-100% disease present) | – |
| CO/C=C(/C(=O)OC)c1ccccc1COC(=O)NN1CCOCC1 [3 (133), (E)-methyl 3-methoxy-2-[2-(morpholinocarbamoyloxymethyl)phenyl]propenoate] | 90 (90 and 94 = 60.1-100% disease present) | 90 (90 and 94 = 60.1-100% disease present) | 90 (90 and 94 = 60.1-100% disease present) | – | 90 (90 and 94 = 60.1-100% disease present) | 90 (90 and 94 = 60.1-100% disease present) | 60 (60 = 30.1-60% disease present) | – | – | – | – | – | – | – | – | 90 (90 and 94 = 60.1-100% disease present) | 90+ (90 and 94 = 60.1-100% disease present) |
| COC=C(C(=O)OC)c1ccccc1COC(=O)NCc1ccccc1 [4 (1)] | 60 (60 = 30.1-60% disease present) | 90 (90 and 94 = 60.1-100% disease present) | 90 (90 and 94 = 60.1-100% disease present) | 30 (30 = 20.1-30% disease present) | 20 (20 and 24 = 10.1-20% disease present) | 30 (30 = 20.1-30% disease present) | 60 (60 = 30.1-60% disease present) | – | – | – | – | – | – | – | – | 90 (90 and 94 = 60.1-100% disease present) | – |
| CCN(C(=O)OCc1ccccc1C(=COC)C(=O)OC)c1cccc([N+](=O)[O-])c1F [106 (3)] | 90 (90 and 94 = 60.1-100% disease present) | – | 30 (30 = 20.1-30% disease present) | – | 0 (0 = 0% disease present) | 60 (60 = 30.1-60% disease present) | 0 (0 = 0% disease present) | – | – | – | – | – | – | – | – | 0 (0 = 0% disease present) | 60+ (60 = 30.1-60% disease present) |
